Experimental data from ChEMBL document CHEMBL2202954, “The effect of PLC-γ2 inhibitors on the growth of human tumour cells” (2012).

Experiments:
Assay type in all cases: functional
RXF 393 = test: Cytotoxicity against human RXF393 cells assessed as cellular growth at 10 uM by SRB assay
NCI-H522 = test: Cytotoxicity against human NCI-H522 cells assessed as cellular growth at 10 uM by SRB assay
KM12 = test: Cytotoxicity against human KM12 cells assessed as cellular growth at 10 uM by SRB assay
MDA-MB-468 = test: Cytotoxicity against human MDA-MB-468 cells assessed as cellular growth at 10 uM by SRB assay
TK-10 = test: Cytotoxicity against human TK10 cells assessed as cellular growth at 10 uM by SRB assay
SK-MEL-2 = test: Cytotoxicity against human SK-MEL-2 cells assessed as cellular growth at 10 uM by SRB assay
SF-295 = test: Cytotoxicity against human SF295 cells assessed as cellular growth at 10 uM by SRB assay
SNB-19 = test: Cytotoxicity against human SNB19 cells assessed as cellular growth at 10 uM by SRB assay
NCI-H460 = test: Cytotoxicity against human NCI-H460 cells assessed as cellular growth at 10 uM by SRB assay
SF-539 = test: Cytotoxicity against human SF539 cells assessed as cellular growth at 10 uM by SRB assay
SW-620 = test: Cytotoxicity against human SW620 cells assessed as cellular growth at 10 uM by SRB assay
CAKI-1 = test: Cytotoxicity against human Caki1 cells assessed as cellular growth at 10 uM by SRB assay
LOX IMVI = test: Cytotoxicity against human LOXIMVI cells assessed as cellular growth at 10 uM by SRB assay
HCT-15 = test: Cytotoxicity against human HCT15 cells assessed as cellular growth at 10 uM by SRB assay
[1] = Cytotoxicity against human NCI-ADR-RES cells assessed as cellular growth at 10 uM by SRB assay
786-0 = test: Cytotoxicity against human 786-0 cells assessed as cellular growth at 10 uM by SRB assay
K562 = test: Cytotoxicity against human K562 cells assessed as cellular growth at 10 uM by SRB assay
NCI-H226 = test: Cytotoxicity against human NCI-H226 cells assessed as cellular growth at 10 uM by SRB assay
PC-3 = test: Cytotoxicity against human PC3 cells assessed as cellular growth at 10 uM by SRB assay
HL-60(TB) = test: Cytotoxicity against human HL-60(TB) cells assessed as cellular growth at 10 uM by SRB assay

| Structure (SMILES) | Activity (RXF 393) [%] | Activity (NCI-H522) [%] | Activity (KM12) [%] | Activity (MDA-MB-468) [%] | Activity (TK-10) [%] | Activity (SK-MEL-2) [%] | Activity (SF-295) [%] | Activity (SNB-19) [%] | Activity (NCI-H460) [%] | Activity (SF-539) [%] | Activity (SW-620) [%] | Activity (CAKI-1) [%] | Activity (LOX IMVI) [%] | Activity (HCT-15) [%] | Activity [1] [%] | Activity (786-0) [%] | Activity (K562) [%] | Activity (NCI-H226) [%] | Activity (PC-3) [%] | Activity (HL-60(TB)) [%] |
| --- | --- | --- | --- | --- | --- | --- | --- | --- | --- | --- | --- | --- | --- | --- | --- | --- | --- | --- | --- | --- |
| Clc1cccc(-c2nc(-c3cccs3)no2)c1 | 114.21 | 85.77 | 102.96 | 44.69 | 74.63 | 103.17 | 108.42 | 105.12 | 97.36 | 102.16 | 91.04 | 99.54 | 94.7 | 105.75 | 103.45 | 94.52 | 100.73 | 97.3 | 84.44 | 108.47 |
| COc1ccc(NC(=O)c2sc3nc4c(cc3c2N)C(=O)CCC4)cc1 | 101.13 | 100.22 | 105.15 | 87.19 | 103.14 | 114.87 | 80.98 | 116.74 | 96.07 | 102.64 | 111.85 | 97.06 | 100.6 | 100.8 | 103.46 | 100.45 | 116.6 | 95.31 | 99.67 | 109.37 |
| COc1ccc2nc(NC(=O)c3ccc(F)cc3)sc2c1 | 110.56 | 75.43 | 93.29 | 102.55 | 98.88 | 143.55 | 54.56 | 109.05 | 19.56 | 97.47 | 101.19 | 79.13 | 102.03 | 85.45 | 89.25 | 96.69 | 82.42 | 92.48 | 88.31 | 108.33 |
| Cc1ccc(S(=O)(=O)NC2=NC(=O)/C(=C\c3ccccc3)S2)cc1 | 118.7 | 85.18 | 115 | 110.23 | 104.1 | 117.54 | 114.32 | 108.61 | 119.27 | 96.06 | 109.53 | 102.92 | 99.09 | 104.84 | 108.06 | 107.82 | 94.57 | 108.84 | 111.74 | 92.36 |
| O=S(=O)(Oc1ccc(-c2cnc3ccccc3n2)cc1)c1ccccc1 | 102.24 | 78.75 | 111.44 | 84.46 | 82.7 | 109.62 | 94.02 | 102.07 | 110.82 | 94.38 | 99.76 | 100.14 | 95.98 | 98.25 | 96.02 | 92.9 | 81.89 | 94.97 | 89.87 | 94.23 |
| O=S(=O)(Oc1ccc(-c2cnc3ccccc3n2)cc1)c1ccc2ccccc2c1 | 110 | 86.38 | 101.08 | 85.1 | 94.33 | 107.17 | 102.68 | 99.88 | 96.28 | 119.65 | 100.52 | 105.66 | 115.1 | 115.04 | 104.07 | 96.4 | 90.95 | 98.79 | 87.31 | 87.7 |
| Cc1ccc2c(c1)N/C(=C/C(=O)c1ccc(Cl)cc1)C(=O)O2 | 111.43 | 81.38 | 102.59 | 107.35 | 131.96 | 108.87 | 113.06 | 105.39 | 109.79 | 106.89 | 114.93 | 105.93 | 100.45 | 99.12 | 104 | 117.98 | 99.7 | 105.28 | 87.2 | 97.02 |
| CC1(C)CC(=O)c2cc3c(N)c(C(=O)Nc4ccc(Cl)cc4)sc3nc2C1 | 116.26 | 95.83 | 116.67 | 109.5 | 95.21 | 100.96 | 100.12 | 113.58 | 108.61 | 114.18 | 108.54 | 134.14 | 108.76 | 107.55 | 113.97 | 98.68 | 107.2 | 108.39 | 104.63 | 107.32 |
| O=C(Nc1ccc2oc(=O)ccc2c1)c1ccc(-c2ccc(Cl)c(Cl)c2)o1 | 98.99 | 70.34 | 73.78 | 97.57 | 90.37 | 102.15 | 102.01 | 101.4 | 100.41 | 90.55 | 100.55 | 87.9 | 47.73 | 72.06 | 78.15 | 88.1 | 65.27 | 92.4 | 73.29 | 85.04 |
| O=C1N=C(c2ccccc2)S/C1=C\c1ccc2c(c1)OCO2 | 115.74 | 105.96 | 92.95 | 98.71 | 110.48 | 110.33 | 97.51 | 98.6 | 96.54 | 95.81 | 89.42 | 101.66 | 102.92 | 101.73 | 107.06 | 100.46 | 73.5 | 95.12 | 85.65 | 111.12 |
| Cc1c(OCC(=O)c2ccccc2)ccc2c1oc(=O)c1ccccc12 | 116.6 | 110.46 | 97.66 | 62.01 | 110 | 125.14 | 99.54 | 101.61 | 100.87 | 104.56 | 95.18 | 99.74 | 98.34 | 107.13 | 100.54 | 104.87 | 100.66 | 99.25 | 90 | 111.36 |
| Nc1c(C(=O)Nc2cccc(Cl)c2)sc2nc3c(cc12)C(=O)CCC3 | 25.93 | 14.59 | 21.64 | -10.56 | 64.95 | 69.74 | -20.21 | 38.19 | 10.27 | 27.25 | 31.28 | 40.31 | 46.08 | 32.41 | 17.69 | 47.72 | 22.78 | 57.93 | 29.1 | 33.11 |
| O=C(NCCc1ccc(Cl)cc1)c1[nH]c2ccccc2c1Cl | 113.7 | 101.96 | 94.49 | 108.58 | 160.82 | 130.7 | 98.05 | 98.39 | 93.16 | 101.07 | 92.87 | 96.12 | 96.1 | 101.72 | 100.24 | 106.07 | 67.44 | 89.37 | 88.9 | 94.84 |
| COc1ccc(S(=O)(=O)n2ccc(-c3ccc4c(c3)CCC(C)(C)O4)n2)cc1 | 110.14 | 55.57 | 81.91 | 36.58 | 68.22 | 84.41 | 47.66 | 87.12 | 75.37 | 102.86 | 90.28 | 63.3 | 79.45 | 97.58 | 57.3 | 67.61 | 55.64 | 71.38 | 78.05 | 60.02 |
| Cc1ccc(CNC(=O)c2[nH]c3ccccc3c2Cl)cc1 | 109.98 | 106.22 | 89.46 | 106.86 | 124.52 | 99.35 | 94.21 | 105.35 | 88.87 | 110.44 | 89.73 | 90.46 | 97.73 | 106.3 | 92.34 | 102.13 | 100.85 | 96.65 | 93.19 | 113.42 |
| O=C(Nc1ccc(S(=O)(=O)Nc2nccs2)cc1)c1cccs1 | 110.47 | 93.79 | 114.86 | 102.57 | 104.94 | 113.23 | 140.51 | 106.66 | 123.68 | 105.81 | 111.55 | 99.02 | 110.65 | 104.67 | 120.26 | 104.56 | 104.24 | 108.77 | 113.66 | 85.93 |
